The target of assay [1] is B-Raf (Homo sapiens, UniProt P15056). Put plainly: Kinase activity assay, B-Raf. It counts as biochemical. Particulars: read-out: activity toward kinase B-Raf, IC50.
Assay [2] has as its target B-Raf V600E (Homo sapiens, UniProt P15056, V600E). Description: Kinase activity assay, B-Raf V600E. It counts as biochemical. Conditions: read-out: activity toward kinase B-Raf V600E, IC50.
In assay [3] the target is C-Raf (Homo sapiens, UniProt P04049). Put plainly: Kinase activity assay, C-Raf.
Assay [4] addresses Kdr (Homo sapiens, UniProt P35968). Description: Kinase activity assay, Kdr.

B-Raf, sequence (P15056 whole entry): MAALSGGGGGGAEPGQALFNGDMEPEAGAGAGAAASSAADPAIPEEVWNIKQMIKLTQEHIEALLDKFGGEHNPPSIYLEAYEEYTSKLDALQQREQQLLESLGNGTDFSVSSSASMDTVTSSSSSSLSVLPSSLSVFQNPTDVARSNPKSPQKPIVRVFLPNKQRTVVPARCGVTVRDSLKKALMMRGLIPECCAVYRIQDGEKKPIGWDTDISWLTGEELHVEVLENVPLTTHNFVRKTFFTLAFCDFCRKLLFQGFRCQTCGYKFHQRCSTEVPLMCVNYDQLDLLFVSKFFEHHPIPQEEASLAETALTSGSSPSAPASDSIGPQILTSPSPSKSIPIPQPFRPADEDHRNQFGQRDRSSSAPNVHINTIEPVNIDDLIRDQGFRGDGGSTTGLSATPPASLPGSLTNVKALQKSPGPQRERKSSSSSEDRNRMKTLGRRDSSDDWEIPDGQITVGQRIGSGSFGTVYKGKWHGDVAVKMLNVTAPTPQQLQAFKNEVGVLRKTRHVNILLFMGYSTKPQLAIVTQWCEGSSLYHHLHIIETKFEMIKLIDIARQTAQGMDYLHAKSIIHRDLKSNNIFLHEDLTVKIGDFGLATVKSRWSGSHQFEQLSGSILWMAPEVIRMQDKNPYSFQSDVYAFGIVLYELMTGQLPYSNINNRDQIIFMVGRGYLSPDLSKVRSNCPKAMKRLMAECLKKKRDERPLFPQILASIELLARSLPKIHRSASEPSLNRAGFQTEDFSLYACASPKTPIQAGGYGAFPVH
C-Raf, sequence (P04049 whole entry): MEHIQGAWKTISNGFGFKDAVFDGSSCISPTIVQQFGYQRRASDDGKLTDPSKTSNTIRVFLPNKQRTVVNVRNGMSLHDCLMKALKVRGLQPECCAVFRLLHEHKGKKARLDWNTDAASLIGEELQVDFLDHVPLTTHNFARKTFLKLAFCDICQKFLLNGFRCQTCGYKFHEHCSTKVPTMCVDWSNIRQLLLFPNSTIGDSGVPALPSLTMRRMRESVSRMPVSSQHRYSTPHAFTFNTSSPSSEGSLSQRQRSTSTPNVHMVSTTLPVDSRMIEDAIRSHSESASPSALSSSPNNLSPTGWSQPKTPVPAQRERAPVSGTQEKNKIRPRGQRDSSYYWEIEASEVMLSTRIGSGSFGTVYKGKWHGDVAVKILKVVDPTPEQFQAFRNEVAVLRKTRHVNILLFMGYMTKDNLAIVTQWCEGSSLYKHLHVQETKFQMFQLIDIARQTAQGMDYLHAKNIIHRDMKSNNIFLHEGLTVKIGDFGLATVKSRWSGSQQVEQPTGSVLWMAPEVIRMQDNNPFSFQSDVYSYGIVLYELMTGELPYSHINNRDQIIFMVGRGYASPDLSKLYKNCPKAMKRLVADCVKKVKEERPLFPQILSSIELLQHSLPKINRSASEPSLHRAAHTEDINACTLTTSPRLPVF
Kdr, sequence (P35968 20-1356): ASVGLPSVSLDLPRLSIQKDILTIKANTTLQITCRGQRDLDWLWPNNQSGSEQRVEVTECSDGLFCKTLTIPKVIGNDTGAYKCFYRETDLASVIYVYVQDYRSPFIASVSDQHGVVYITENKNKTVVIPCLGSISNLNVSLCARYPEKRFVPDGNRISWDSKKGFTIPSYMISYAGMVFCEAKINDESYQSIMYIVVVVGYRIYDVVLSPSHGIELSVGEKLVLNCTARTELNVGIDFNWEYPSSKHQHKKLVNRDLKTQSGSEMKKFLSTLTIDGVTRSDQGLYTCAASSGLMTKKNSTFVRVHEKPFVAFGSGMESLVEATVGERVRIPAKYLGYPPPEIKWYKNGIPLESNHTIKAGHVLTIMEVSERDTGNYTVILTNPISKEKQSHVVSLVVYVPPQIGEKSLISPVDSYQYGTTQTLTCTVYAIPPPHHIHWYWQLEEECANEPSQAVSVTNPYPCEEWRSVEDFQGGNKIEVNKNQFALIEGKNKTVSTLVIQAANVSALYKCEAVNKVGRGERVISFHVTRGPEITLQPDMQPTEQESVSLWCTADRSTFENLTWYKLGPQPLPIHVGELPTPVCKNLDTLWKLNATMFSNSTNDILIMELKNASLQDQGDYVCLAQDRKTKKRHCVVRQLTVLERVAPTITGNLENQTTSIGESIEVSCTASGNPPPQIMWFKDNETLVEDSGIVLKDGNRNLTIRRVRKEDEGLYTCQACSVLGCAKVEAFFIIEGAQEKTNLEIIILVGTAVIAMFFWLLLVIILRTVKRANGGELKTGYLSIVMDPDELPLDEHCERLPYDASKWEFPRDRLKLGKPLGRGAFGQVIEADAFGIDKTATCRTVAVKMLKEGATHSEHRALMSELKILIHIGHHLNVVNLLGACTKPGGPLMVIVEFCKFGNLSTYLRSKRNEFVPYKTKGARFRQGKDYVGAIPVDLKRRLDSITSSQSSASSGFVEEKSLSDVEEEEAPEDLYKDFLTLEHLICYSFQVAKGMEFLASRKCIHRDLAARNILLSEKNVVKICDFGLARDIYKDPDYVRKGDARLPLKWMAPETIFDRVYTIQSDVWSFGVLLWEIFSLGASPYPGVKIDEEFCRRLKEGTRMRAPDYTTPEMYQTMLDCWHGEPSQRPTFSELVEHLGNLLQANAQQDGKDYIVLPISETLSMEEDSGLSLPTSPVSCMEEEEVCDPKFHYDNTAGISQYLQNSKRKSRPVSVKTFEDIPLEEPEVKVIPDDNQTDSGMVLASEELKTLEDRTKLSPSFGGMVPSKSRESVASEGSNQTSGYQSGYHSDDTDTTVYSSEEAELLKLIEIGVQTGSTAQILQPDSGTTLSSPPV
B-Raf V600E, sequence (P15056 whole entry V600E): as the sequence (P15056 whole entry) above, with V600E counted along it

Broadly, the IC50 is the concentration that gives 50% inhibition. In the case of `N#Cc1cnc2[nH]cc(C(=O)c3c(F)ccc(NS(=O)(=O)c4ccc(F)cc4)c3F)c2c1` [P-2028, N-[3-(5-Cyano-1H-pyrrolo[2,3-b]pyridine-3-carbonyl)-2,4-difluoro-phenyl]-4-fluoro-benzenesulfonamide], the IC50 in assay [1], in assay [2] and in assay [3] was no more than 10 µM each time.

`N#Cc1cnc2[nH]cc(C(=O)c3cccc(NS(=O)(=O)c4ccc(F)cc4)c3F)c2c1` [P-2050, N-[3-(5-Cyano-1H-pyrrolo[2,3-b]pyridine-3-carbonyl)-2-fluoro-phenyl]-4-fluoro-benzenesulfonamide]: the IC50 in assay [1], in assay [2] and in assay [3] was no more than 10 µM throughout.

Consider `COc1ccnc2[nH]cc(C(=O)c3c(F)ccc(NS(=O)(=O)c4ncn[nH]4)c3F)c12` [P-2068, 2H-[1,2,4]Triazole-3-sulfonic acid [2,4-difluoro-3-(4-methoxy-1H-pyrrolo[2,3-b]pyridine-3-carbonyl)-phenyl]-amide], for which the half-inhibitory concentration (IC50) in assay [2] and in assay [3] was no more than 10 µM in each case.

`Cc1oncc1S(=O)(=O)Nc1ccc(F)c(C(=O)c2c[nH]c3ncc(C#N)cc23)c1F` [P-2081, 5-Methyl-isoxazole-4-sulfonic acid [3-(5-cyano-1H-pyrrolo[2,3-b]pyridine-3-carbonyl)-2,4-difluoro-phenyl]-amide]: the half-maximal inhibitory concentration (IC50) in assay [2], in assay [4] and in assay [3] was no more than 10 µM in each case.

Turning to `Cc1c(S(=O)(=O)Nc2ccc(F)c(C(=O)c3c[nH]c4ncc(C#N)cc34)c2F)cnn1C` [P-2082, 1,5-Dimethyl-1H-pyrazole-4-sulfonic acid [3-(5-cyano-1H-pyrrolo[2,3-b]pyridine-3-carbonyl)-2,4-difluoro-phenyl]-amide], the IC50 in assay [2] and in assay [4] was no more than 10 µM in each case.

For `CCn1cc(S(=O)(=O)Nc2ccc(F)c(C(=O)c3c[nH]c4ncc(C#N)cc34)c2F)cn1` [P-2083, 1-Ethyl-1H-pyrazole-4-sulfonic acid [3-(5-cyano-1H-pyrrolo[2,3-b]pyridine-3-carbonyl)-2,4-difluoro-phenyl]-amide], the IC50 in assay [2] and in assay [3] was no more than 10 µM throughout.

For `Cn1cc(S(=O)(=O)Nc2ccc(F)c(C(=O)c3c[nH]c4ncc(C#N)cc34)c2F)cn1` [P-2084, 1-Methyl-1H-pyrazole-4-sulfonic acid [3-(5-cyano-1H-pyrrolo[2,3-b]pyridine-3-carbonyl)-2,4-difluoro-phenyl]-amide], the half-inhibitory concentration (IC50) in assay [1], in assay [2] and in assay [3] was no more than 10 µM each time.

As for `COc1ccc(S(=O)(=O)Nc2ccc(F)c(C(=O)c3c[nH]c4ncc(C#N)cc34)c2F)cn1` [P-2085, 6-Methoxy-pyridine-3-sulfonic acid [3-(5-cyano-1H-pyrrolo[2,3-b]pyridine-3-carbonyl)-2,4-difluoro-phenyl]-amide], the IC50 in assay [1], in assay [2] and in assay [3] was no more than 10 µM each time.

Regarding `CCn1cc(S(=O)(=O)Nc2cccc(C(=O)c3c[nH]c4ncc(C#N)cc34)c2F)cn1` [P-2089, 1-Ethyl-1H-pyrazole-4-sulfonic acid [3-(5-cyano-1H-pyrrolo[2,3-b]pyridine-3-carbonyl)-2-fluoro-phenyl]-amide], the IC50 in assay [2], in assay [4] and in assay [3] was no more than 10 µM in each case.

In the case of `Cc1c(S(=O)(=O)Nc2cccc(C(=O)c3c[nH]c4ncc(C#N)cc34)c2F)cnn1C` [P-2091, 1,5-Dimethyl-1H-pyrazole-4-sulfonic acid [3-(5-cyano-1H-pyrrolo[2,3-b]pyridine-3-carbonyl)-2-fluoro-phenyl]-amide], in assay [2], the IC50 is no more than 10 µM.

With `COc1ccc(S(=O)(=O)Nc2cccc(C(=O)c3c[nH]c4ncc(C#N)cc34)c2F)cn1` [P-2092, 6-Methoxy-pyridine-3-sulfonic acid [3-(5-cyano-1H-pyrrolo[2,3-b]pyridine-3-carbonyl)-2-fluoro-phenyl]-amide], the IC50 in assay [2] and in assay [3] was no more than 10 µM throughout.

Consider `N#Cc1cnc2[nH]cc(C(=O)c3c(F)ccc(NS(=O)(=O)Cc4ccccn4)c3F)c2c1` [P-2093, N-[3-(5-Cyano-1H-pyrrolo[2,3-b]pyridine-3-carbonyl)-2,4-difluoro-phenyl]-C-pyridin-2-yl-methanesulfonamide], for which the IC50 in assay [2] and in assay [4] was no more than 10 µM throughout.

Consider `N#Cc1cnc2[nH]cc(C(=O)c3c(F)ccc(NS(=O)(=O)Cc4ccncc4)c3F)c2c1` [P-2095, N-[3-(5-Cyano-1H-pyrrolo[2,3-b]pyridine-3-carbonyl)-2,4-difluoro-phenyl]-C-pyridin-4-yl-methanesulfonamide], for which the IC50 in assay [2] and in assay [4] was no more than 10 µM throughout.

As for `N#Cc1cnc2[nH]cc(C(=O)c3cccc(NS(=O)(=O)Cc4cccnc4)c3F)c2c1` [P-2096, N-[3-(5-Cyano-1H-pyrrolo[2,3-b]pyridine-3-carbonyl)-2-fluoro-phenyl]-C-pyridin-3-yl-methanesulfonamide], the 50% inhibitory concentration (IC50) in assay [2] and in assay [4] was no more than 10 µM throughout.

On to `N#Cc1cnc2[nH]cc(C(=O)c3cccc(NS(=O)(=O)Cc4ccncc4)c3F)c2c1` [P-2097, N-[3-(5-Cyano-1H-pyrrolo[2,3-b]pyridine-3-carbonyl)-2-fluoro-phenyl]-C-pyridin-4-yl-methanesulfonamide], for which the IC50 in assay [2] and in assay [4] was no more than 10 µM each time.

With `N#Cc1cnc2[nH]cc(C(=O)c3cccc(NS(=O)(=O)Cc4ccccn4)c3F)c2c1` [P-2098, N-[3-(5-Cyano-1H-pyrrolo[2,3-b]pyridine-3-carbonyl)-2-fluoro-phenyl]-C-pyridin-2-yl-methanesulfonamide], the IC50 in assay [2] is no more than 10 µM.

Take `CCCS(=O)(=O)Nc1ccc(F)c(C(=O)c2c[nH]c3ncc(S(C)(=O)=O)cc23)c1F` [P-2173, Propane-1-sulfonic acid [2,4-difluoro-3-(5-methanesulfonyl-1H-pyrrolo[2,3-b]pyridine-3-carbonyl)-phenyl]-amide]: the IC50 in assay [1] and in assay [2] was no more than 10 µM in each case.

For `CCCS(=O)(=O)Nc1ccc(F)c(C(=O)c2c[nH]c3ncc(-c4ccc(S(=O)(=O)N5CCCCC5)cc4)cc23)c1F` [P-2186, Propane-1-sulfonic acid (2,4-difluoro-3-{5-[4-(piperidine-1-sulfonyl)-phenyl]-1H-pyrrolo[2,3-b]pyridine-3-carbonyl}-phenyl)-amide], the 50% inhibitory concentration (IC50) in assay [1], in assay [2] and in assay [4] was no more than 10 µM throughout.

For the compound `CCCS(=O)(=O)Nc1ccc(F)c(C(=O)c2c[nH]c3ncc(-c4cnc(SC)nc4)cc23)c1F` [P-2189, Propane-1-sulfonic acid {2,4-difluoro-3-[5-(2-methylsulfanyl-pyrimidin-5-yl)-1H-pyrrolo[2,3-b]pyridine-3-carbonyl]-phenyl}-amide], the half-maximal inhibitory concentration (IC50) in assay [1], in assay [2] and in assay [4] was no more than 10 µM throughout.

Take `CCCS(=O)(=O)Nc1ccc(F)c(C(=O)c2c[nH]c3ncc(-c4cnc(N5CCOCC5)nc4)cc23)c1F` [P-2197, Propane-1-sulfonic acid {2,4-difluoro-3-[5-(2-morpholin-4-yl-pyrimidin-5-yl)-1H-pyrrolo[2,3-b]pyridine-3-carbonyl]-phenyl}-amide]: the IC50 in assay [1], in assay [2] and in assay [4] was no more than 10 µM in each case.

For `CS(=O)(=O)Nc1ccc(F)c(C(=O)c2c[nH]c3ncc(C#N)cc23)c1F` [P-2294, N-[3-(5-Cyano-1H-pyrrolo[2,3-b]pyridine-3-carbonyl)-2,4-difluoro-phenyl]-methanesulfonamide], the IC50 in assay [2], in assay [4] and in assay [3] was no more than 10 µM throughout.

Turning to `O=C(c1c(F)ccc(NS(=O)(=O)C2(C(=O)O)CC2)c1F)c1c[nH]c2ncc(Br)cc12` [P-2349, 1-[3-(5-Bromo-1H-pyrrolo[2,3-b]pyridine-3-carbonyl)-2,4-difluoro-phenylsulfamoyl]-cyclopropanecarboxylic acid], the IC50 in assay [4] was no more than 10 µM.

On to `CC(C)S(=O)(=O)Nc1cccc(C(=O)c2c[nH]c3ncc(C#N)cc23)c1F` [P-2411, Propane-2-sulfonic acid [3-(5-cyano-1H-pyrrolo[2,3-b]pyridine-3-carbonyl)-2-fluoro-phenyl]-amide], for which the half-maximal inhibitory concentration (IC50) in assay [2] and in assay [3] was no more than 10 µM throughout.

For the compound `N#Cc1cnc2[nH]cc(C(=O)c3cccc(NS(=O)(=O)N4CCOCC4)c3F)c2c1` [P-2421, Morpholine-4-sulfonic acid [3-(5-cyano-1H-pyrrolo[2,3-b]pyridine-3-carbonyl)-2-fluoro-phenyl]-amide], the IC50 in assay [2] and in assay [3] was no more than 10 µM throughout.

`COc1ncc(-c2cnc3[nH]cc(C(=O)c4cccc(NS(=O)(=O)N(C)C)c4F)c3c2)cn1` [P-2424, N,N-dimethylamino-sulfonic acid {2-fluoro-3-[5-(2-methoxy-pyrimidin-5-yl)-1H-pyrrolo[2,3-b]pyridine-3-carbonyl]-phenyl}-amide]: the IC50 in assay [2], in assay [4] and in assay [3] was no more than 10 µM each time.

In assay [4], `O=C(c1cccc(NS(=O)(=O)C2CCCC2)c1)c1c[nH]c2ncc(F)cc12` [P-2463, Cyclopentanesulfonic acid [3-(5-fluoro-1H-pyrrolo[2,3-b]pyridine-3-carbonyl)-phenyl]-amide] displayed a 50% inhibitory concentration (IC50) of no more than 10 µM.

In assay [4], `CN(C)S(=O)(=O)Nc1cccc(C(=O)c2c[nH]c3ncc(Cl)cc23)c1` [P-2470, N,N-dimethylamino-sulfonic acid [3-(5-chloro-1H-pyrrolo[2,3-b]pyridine-3-carbonyl)-phenyl]-amide] had an IC50 of no more than 10 µM.

As for `O=C(c1c(F)ccc(NS(=O)(=O)c2ccc(C(F)(F)F)cc2)c1F)c1c[nH]c2ncc(C3CC3)cc12` [P-2483, N-[3-(5-Cyclopropyl-1H-pyrrolo[2,3-b]pyridine-3-carbonyl)-2,4-difluoro-phenyl]-4-trifluoromethyl-benzenesulfonamide], the IC50 in assay [4] and in assay [3] was no more than 10 µM in each case.

The values above are taken from patent US20120122860A1, “SOLID FORMS OF SULFONAMIDES AND AMINO ACIDS” (Plexxikon, Inc., priority 2009, published 2012).
